Results published in US7947262B2, “Use of fullerenes for the treatment of mast cell and basophil-mediated disease” (Virginia Commonwealth University, priority 2006, dated 2011).

Columns and labels:
skin MC [1] = experiment: Cellular localization by immunohistochemistry with anti-C60 fullerene Ab; assay type: cell-based, human; conditions: 4 hours incubation; Polyhydroxy C60 10 ng/ml, N-ethyl-polyamino C60 0.1 μg/ml; FIG. 4
Method: Skin MC (a-d) or PBB (e, f) were incubated with Polyhydroxy C60 (10 ng/ml; a, b, c, f) or N-ethyl-polyamino C60 (0.1 μg/ml; d, f) for 4 hours, washed and cytocentrifuged onto slides. The cytocentrifuge preparations were incubated with anti-C60 fullerene Abs (c, d, e, f) or with an isotype-matched control (a, b) overnight. The cytospins were washed and incubated with a 1:50 dilution of peroxidase-conjugated, anti-mouse Abs and developed with AEC as described. Photographs a and b are the same field taken under phase-contrast (a) or light (b) at a magification of 400×. Pictures c-f were taken under light at a magification of 1000×.
To access the cellular localization if the fullerenes within human MC, these cells were incubated with the water soluble fullerenes and immunohistochemistry was assessed using a fullerene-specific antibody Ab (59;60).

PBB [2] = experiment: Cellular ROS levels after antigen challenge (DCF dye, FACS); assay type: cell-based, human; conditions: preincubation, then NIP-BSA 100 ng/ml for 30 min; FIG. 5
Method: (§1) Skin MC (grey) or PBB (white) were sensitized overnight with anti-NIP-IgE (1 μg/ml). Cells were activated for 30 min with NIP-BSA (100 ng/ml) with or without preincubation with the indicated concentrations of fullerenes or N-acetyl-L-cysteine (NAC; 10 μmol). Cellular ROS levels were detected by incubating the cells in the ROS indicating dye 5-(and-6)-carboxy-2′,7′-dichlorodihydrofluorescein diacetate (DCF) followed by FACS analysis. The results are representative of 3 separate MC or PBB cultures. The * or # indicates statistically significant changes in ROS levels for MC and PBB, respectively (p<0.05). A, polyhydroxy C60 fullerenes; B, N-ethyl-polyamine C60 fullerenes.
(§2) To investigate the mechanism by which these fullerenes inhibit allergic mediator release from skin MC and PBB, the effect these compounds have on ROS levels within the cell after antigen stimulation was tested.

skin MC [3] = experiment: as above; assay type: cell-based, human; conditions: preincubation, then NIP-BSA 100 ng/ml for 30 min; FIG. 5
Method: as §1, §2

IgE-DNP-sensitized mice = experiment: IgE-induced systemic anaphylaxis in vivo; conditions: intravenously (50 ng/ml) overnight before DNP-BSA challenge; FIG. 6
Method: FIG. 6. […] Mice (3-5 per group; n=2 separate experiments) were sensitized with or without (Δ) DNP-IgE overnight. The mice were then given vehicle alone (▪) or fullerenes (▾=Poly C60; ●=N-ethyl C60) intravenously (50 ng/ml) overnight. The next morning the animals were challenged with DNP-BSA (100 μg/ml) and the core body temperature measured for up to 30 minutes. Serum histamine levels were measured by ELISA. A, data represented with line graphs; B, data represented with bar graphs.
Systemic anaphylaxis is predominately driven by the activation of MC and PBB through IgE-FceRI crosslinking (45;61). […] Thus, we hypothesized that they could inhibit MC and PBB-induced anaphylaxis in vivo using IgE-sensitized mice. […] In addition, there was a significant reduction in serum histamine levels with the fullerene preincubation.
To test inhibition of mouse anaphylaxis, mice are injected intraperitoneally (IP) with 50 μg of DNP-specific IgE. After approximately 4 to 6 hours the mice (triplicate) are injected with or without different concentrations of fullerenes. The next day cells are injected IP with DNP-HSA (100 μg, Sigma-Aldrich). […] After 30 minutes, mice are sacrificed, and cardiac puncture is used to obtain plasma, from which histamine and other mediators are measured by ELISA. […]

skin MC [4] = tested on: skin MC
Method: (§3) A bar graph illustrating the effects of fullerenes on skin MC and PBB viability Cells were cultured with (poly; white bars, N-ethyl; striped bars) or without (black bars) fullerenes (10 mg/ml) for the indicated times. Cells were washed and viability assessed by trypan blue exclusion. Results are representative of 3 experiments from different donors.
(§4) The effects of water soluble fullerene derivatives (Poly; polyhydroxy C60 and N-ethyl; N-ethyl-polyamino C60) on cell growth and viability were tested. Cells were incubated for up to 72 hours and total cell numbers were assessed along with trypan blue exclusion.

PBB [5] = tested on: PBB
Method: as §3, §4

Row | cellular localization of fullerenes (skin MC [1]) | Substance | cellular ROS levels (PBB [2]) | cellular ROS levels (skin MC [3]) | IgE-induced anaphylaxis (IgE-DNP-sensitized mice) | total cell numbers (skin MC [4]) | total cell numbers (PBB [5])
1 | localize within the cytoplasm of MC | N-ethyl-polyamino C60 | inhibit ROS production | inhibit ROS production | inhibit IgE-induced anaphylaxis | None of the fullerenes demonstrated a significant affect | None of the fullerenes demonstrated a significant affect
2 | localize within the cytoplasm of MC | polyhydroxy C60 | inhibit ROS production | inhibit ROS production | inhibit IgE-induced anaphylaxis | None of the fullerenes demonstrated a significant affect | None of the fullerenes demonstrated a significant affect
